Source: article PMC8509428, “The Phenoxyalkyltriazine Antagonists for 5-HT6 Receptor with Promising Procognitive and Pharmacokinetic Properties In Vivo in Search for a Novel Therapeutic Approach to Dementia Diseases” (International Journal of Molecular Sciences, 2021)
Read-outs that look alike come from different tables or passages of the source.

Assays:
rats = test: Forced swim test (FST); format: in vivo, rat; conditions: for Immobility Time: 60 min before test, mean ± SEM
Procedure: The experiment was carried out according to the method of [54]. On the first day of the experiment, the animals were gently individually placed in Plexiglas cylinders (40 cm high, 18 cm in diameter) containing 15 cm of water maintained at 23–25 °C for 15 min. On removal from water, the rats were placed for 30 min in a Plexiglas box under 60-W bulb to dry. On the following day (24 h later), the rats were replaced in the cylinder and the total duration of immobility was recorded during the whole 5-min test period. The immobility was assigned when no additional activity was observed other than that necessary to keep the rat’s head above the water. Fresh water was used for each animal.

5-HT7R = conditions: ± SD; read-out: Ki 5-HT7 (converted); cited from earlier work
5-HT1AR = molecular target: T1, 5-HT1AR (Homo sapiens, UniProt P08908); test: Radioligand binding assay (RBA), 5-HT1AR; conditions: ± SD; displacement of [3H]-8-OHDPAT, HEK-293 cells; read-out: Ki 5-HT1A (converted)
T1 construct: expressed in transfected cells; host or cells: HEK-293
T1 sequence (P08908 1-422): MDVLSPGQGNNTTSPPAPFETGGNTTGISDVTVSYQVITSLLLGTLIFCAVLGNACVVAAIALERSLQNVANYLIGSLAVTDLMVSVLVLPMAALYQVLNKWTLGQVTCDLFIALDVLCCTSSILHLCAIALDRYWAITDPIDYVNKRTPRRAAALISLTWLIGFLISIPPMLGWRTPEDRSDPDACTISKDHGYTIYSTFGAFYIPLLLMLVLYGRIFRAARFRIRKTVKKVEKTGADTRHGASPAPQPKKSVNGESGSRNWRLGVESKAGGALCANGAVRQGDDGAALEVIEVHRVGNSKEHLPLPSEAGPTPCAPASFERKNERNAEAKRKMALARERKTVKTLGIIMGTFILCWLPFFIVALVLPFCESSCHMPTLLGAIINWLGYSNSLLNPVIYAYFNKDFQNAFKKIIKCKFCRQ
Procedure: The cells used in the radioligand binding assays receptor 5-HT1A were stably expressed in HEK-293 cells. Transfections were performed with the use of Lipofectamine 2000. The binding procedure was accomplished via the displacement of 2.5 nM [^3H]-8-OHDPAT (135.2 Ci/mmol) for 5-HT1AR. Each compound was tested in triplicate in seven to eight different concentrations (10^−11 to 10^−4 M). The inhibition constants (Ki) were calculated using the Cheng–Prusoff equation [45] and the results are expressed as the mean of at least two independent experiments.

[1] = molecular target: human serotonin 5-HT6 receptor (Homo sapiens, UniProt P50406); test: Functional assay for 5-HT6 receptor (cAMP, 1321N1 cells)
dopaminergic receptor D2 = conditions: ± SD; cited from earlier work
hepatoma HepG2 cell line = test: Hepatotoxicity, HepG2 viability (MTS); format: cell-based; conditions: 0.1–100 µM, 72 h
Procedure: Cells were grown under previously described conditions. […] The cells’ viability was determined by CellTiter 96® AQueous Non-Radioactive Cell Proliferation Assay (MTS), which was purchased from Promega® (Madison, WI, USA). The absorbance was measured using a microplate reader EnSpire (PerkinElmer, Waltham, MA USA) at 490 nm. All compounds were tested in quadruplicate.

[2] = system: Salmonella Typhimurium TA100; format: cell-based
Excerpt: The used Salmonella Typhimurium TA100 strain has base pair substitution (hisG46 mutation, which target is GGG). […] The occurrence of revertants was visualized by pH indicator dye which was present in the bacterial medium.

[3] = Bi-directional Caco-2 permeability assay; format: in vitro ADME; conditions: human, pH 7.4, Caco-2, 10 µM, triplicate
CYP3A4 = molecular target: T2, CYP3A4 (Homo sapiens, UniProt P08684); test: CYP3A4 P450-Glo assay; format: in vitro ADME
T2 construct: purchased Promega
Procedure: The luminescent CYP3A4 P450-Glo™ Promega® (Madison, WI, USA) was used for the investigation of potential drug-drug interactions. All assays and protocols were described before. The compounds were tested in triplicate at the final concentrations in the range from 0.01 to 25 μM. The luminescent signal was measured by using a microplate reader EnSpire PerkinElmer (Waltham, MA, USA).

[4] = Metabolic stability in rat liver microsomes; format: in vitro ADME
Procedure: The tested 5-HT6R ligands (50 µM) were incubated in the presence of RLMs (1 mg/mL) in 10 mM Tris–HCl buffer (37 °C). The LC/MS analyses with additional MS ion fragmentation of the products and substrates were performed to determine the most probable structures of 5-HT6R ligands’ metabolites. LC/MS Waters ACQUITY™ TQD system with the TQ Detector (Waters, Milford, CT, USA).

PAMPA permeability = format: in vitro ADME; conditions: PBS pH 7.4, 5 h, triplicate, read-out: Pe (PAMPA permeability coefficient) ± SD
Procedure: The 96-well Pre-coated PAMPA Plate System Gentest™ that was used was obtained from Corning (Tewksbury, MA, USA). […] 200 μL/well of PBS was added to the acceptor wells. All compounds were analyzed in triplicate. The plate was incubated at room temperature for 5 h. Then, the 50 μL was aspirated from each well and diluted next with 50 µL solution of an internal standard (IS). The compounds’ concentrations in acceptor and donor wells were estimated by the UPLC-MS analyses, which were performed by LC/MS Waters ACQUITY™ TQD system with the TQ Detector (Waters, Milford, CT, USA). The permeability coefficients (Pe, cm/s) were calculated according described previously formulas.

[5] = 1321-N1, read-out: 5-HT6 Antagonist Mode Emax
[6] = 1321-N1, read-out: 5-HT6R Agonist Mode Emax
[7] = estimated from MS spectra supported by in silico data

Sequence of human serotonin 5-HT6 receptor (P50406 whole entry): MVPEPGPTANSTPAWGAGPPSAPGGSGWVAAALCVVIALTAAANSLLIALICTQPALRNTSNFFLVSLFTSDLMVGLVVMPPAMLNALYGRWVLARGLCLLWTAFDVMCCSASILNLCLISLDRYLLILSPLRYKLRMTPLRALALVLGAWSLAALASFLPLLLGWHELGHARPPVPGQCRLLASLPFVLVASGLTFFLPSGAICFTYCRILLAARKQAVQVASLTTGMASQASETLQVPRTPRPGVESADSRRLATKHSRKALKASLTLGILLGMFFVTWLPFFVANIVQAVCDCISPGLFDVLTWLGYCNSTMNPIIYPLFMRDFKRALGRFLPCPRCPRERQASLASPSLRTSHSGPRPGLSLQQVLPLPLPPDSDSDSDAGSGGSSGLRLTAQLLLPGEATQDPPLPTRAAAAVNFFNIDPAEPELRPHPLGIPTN
T2 sequence (P08684 whole entry): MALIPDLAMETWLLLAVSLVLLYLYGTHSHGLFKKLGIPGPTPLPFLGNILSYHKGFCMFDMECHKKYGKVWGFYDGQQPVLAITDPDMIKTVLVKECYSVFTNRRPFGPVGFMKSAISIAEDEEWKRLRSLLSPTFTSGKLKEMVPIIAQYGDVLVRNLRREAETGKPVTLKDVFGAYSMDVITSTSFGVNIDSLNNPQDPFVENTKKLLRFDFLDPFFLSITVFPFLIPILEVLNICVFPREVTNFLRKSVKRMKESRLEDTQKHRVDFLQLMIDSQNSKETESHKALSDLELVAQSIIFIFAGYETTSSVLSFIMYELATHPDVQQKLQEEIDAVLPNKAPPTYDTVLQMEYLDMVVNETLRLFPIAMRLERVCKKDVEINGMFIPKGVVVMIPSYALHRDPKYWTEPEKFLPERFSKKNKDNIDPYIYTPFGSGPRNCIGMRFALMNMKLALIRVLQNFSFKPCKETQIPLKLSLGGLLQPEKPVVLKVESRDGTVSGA

Row | SMILES | Immobility Time (rats; 1 mg/kg i.p.) [s] | Immobility Time (rats; 3 mg/kg i.p.) [s] | decrease of immobility time vs vehicle-treated group (rats; 10 mg/kg) | Immobility Time (rats; 10 mg/kg i.p.) [s] | Ki (5-HT7R) [nM] | Ki (5-HT1AR) [nM] | Emax [1, 5] [%] | Emax [1, 6] [%] | Ki (dopaminergic receptor D2) [nM] | hepatotoxicity effect, HepG2 viability (hepatoma HepG2 cell line) | Binomial B-Value ([2]; 1 µM) | Number of Revertants ± SD ([2]; 1 µM) | Binomial B-Value ([2]; 10 µM) | Number of Revertants ± SD ([2]; 10 µM) | Papp A→B at 2 h, 10 µM [3] [×10⁻⁶ cm/s] | Papp B→A at 2 h, 10 µM [3] [×10⁻⁶ cm/s] | parent compound remaining in the reaction mixture (Area%) ([4]; RLMs, 120 min incubation) [%] | Metabolic Pathway, metabolite M1 [4, 7] | Metabolic Pathway, metabolite M2 [4, 7] | Papp at 5 h (PAMPA permeability) [×10⁻⁶ cm/s] | also measured
1 | CCC(Oc1cccc(Cl)c1Cl)c1nc(N)nc(N2CCN(C)CC2)n1 (racemic) [Compound 2, (RS)-4-[1-(2,3-dichlorophenoxy)propyl]-6-(4-methylpiperazin-1-yl)-1,3,5-triazin-2-amine] | 223.13 ± 11.4 | 220.71 ± 4.7 | 25% | 171.38 ± 12.80 | 5200 | 521 | 96 | 5 ± 1.1 | 421 | no hepatotoxicity effect | 0.2601 | 12.00 ± 7.55 | 0.5425 | 13.33 ± 2.31 | 50.3 ± 6.22 | 21.1 ± 2.14 | 80 | hydroxylation | hydroxylation | 20.5 ± 5.4 | inhibition against CYP3A4 (CYP3A4; all tested concentrations (0.1 to 25 μM)): did not display an inhibition; parent structure biotransformed ([4]; RLMs, 120 min incubation): 20%; Metabolic Pathway, metabolite M3 [4, 7]: demethylation
2 | CCC(Oc1ccccc1)c1nc(N)nc(N2CCN(C)CC2)n1 (racemic) [Compound 3, (RS)-4-(4-methylpiperazin-1-yl)-6-(1-phenoxypropyl)-1,3,5-triazin-2-amine] | 177.50 ± 6.1 | 159.13 ± 13.3 | about 36% | 134.63 ± 16.7 | 19900 | 3640 | 100 | 9 ± 1.4 | 1510 | no hepatotoxicity effect | 0.0001 | 0.33 ± 0.58 | 0.0324 | 1.67 ± 1.53 | 3.16 ± 1.35 | 10.1 ± 0.15 | 95.7 | decomposition and triple hydroxylation | hydroxylation | 15.1 ± 1 | decrease of immobility time vs vehicle-treated group (rats; 3 mg/kg): about 30%; CYP3A4 activity remaining (CYP3A4; 10 μM of compound): 64%
